Data from patent US20040071768A1, “Compositions and methods for treating cancer” (Inex Pharmaceuticals Corporation, priority 1999, published 2004).
Where two headings read alike, the source gives them in different places.

Experiments:
[1] = for DRD: ICR
Experimental: Single and multiple (q7dx3) dose MTD studies were performed in tumor-bearing and non-tumor bearing NCr nu/nu mice, as well as healthy, outbred ICR mice.
A comparative (VRL vs. liposomal VRL) toxicity study was performed in healthy, outbred ICR mice.
Parameters evaluated throughout the study included animal weight loss, physical appearance and behavioral changes, blood analysis (CBC and serum chemistry panel), hematopoietic progenitor cell levels in femur bone marrow, and organ weights and gross pathology. Tissues were collected and stored for histology as required.

[2] = Maximum tolerable dose (MTD) of free and liposomal vinorelbine; format: in vivo, nude and ICR mice
MX-1 breast xenografts = experiment: Single dose anti-tumor activity, MX-1 breast xenograft; format: in vivo
Experimental: (§1) Female NCr nude mice were injected intravenously via the lateral tail vein on day 8 post-tumor-implantation with saline (♦), NVB at 34.0 mg/kg (◯) and 25.5 mg/kg (□), or NVB-TCS at 15.0 mg/kg (●) and 11.0 mg/kg (▪) at a drug-to-lipid ratio of 0.3:1 (w/w). The arrow on the x-axis denotes the day of drug administration. Data points represent mean±SEM (n=10). […]
(§2) Tumor models investigated included RXF393 (renal), MX-1 (breast), LX-1 (small cell lung cancer), PC-3 (prostate), and HT29 (colon). These models were known to be sensitive to vinorelbine. Tumor fragments were implanted subcutaneously in the flank of NCr nu/nu mice. […] Animal weights and tumor size were determined twice weekly.

[3] = system: LX-1 small cell lung xenografts; experiment: Single dose anti-tumor activity, LX-1 small cell lung xenograft; format: in vivo
Experimental: Female NCr nude mice were injected intravenously via the lateral tail vein on day 11 post-tumor-implantation with saline (♦), NVB at 25.5 mg/kg (◯), or NVB-TCS at 15.0 mg/kg (●) and 11.0 mg/kg (▪) at a drug-to-lipid ratio of 0.3:1 (w/w). The arrow on the x-axis denotes the day of drug administration. Data points represent mean±SEM (n=7).
Vinorelbine is used clinically in the treatment of advanced NSCLC and metastatic breast cancer.
as §2

HT29 colon xenografts = experiment: Single dose anti-tumor activity, HT29 colon xenograft; format: in vivo; conditions: HT-29
Experimental: as §1, with “12” for “8”, “30.0” for “34.0”, “(n=7).” for “(n=10).”
as §2

[4] = system: MDA-MB-435 breast xenografts
Experimental: Female NCr nude mice were injected intravenously (q7dx3, beginning day 15) via the lateral tail vein. […] Paclitaxel (⋄) was prepared in […]/12.5% ethanol/75% saline and injected iv (q1dx5) at a dose of 15 mg/kg/dose. Drug-to-lipid ratio was 0.3/1 (w/w). Data points represent median tumor volume (n=6).
The anti-tumor activity of multiple (q7d3) dose schedules of liposomal vinorelbine was evaluated in several human xenograft tumor models. The goal of this series of studies was to identify the benefits of encapsulation by evaluating a series of doses and determining the therapeutic index in several xenograft models. Models were selected based on the following criteria: (1) activity in the single dose studies, (2) a comprehensive literature review of vinca alkaloid efficacy, (3) a desire to include at least 2-3 models that represent the clinical use of vinorelbine, and (4) a desire to include models with a range of sensitivity to vinorelbine so that improvements resulting from the use of the liposome formulation might be identified. Based on these criteria, MX-1 and MDA-MB-435 breast models, the NCl-H460 NSCLC model and the HT-29 and DLD-1 colon models were chosen.
Therapeutic index (TI) is a parameter that quantifies the “safety factor” of a particular therapy. TI is a ratio of a toxicity parameter and a biological activity parameter. Therefore, a higher ratio represents a greater potential margin of safety. For these studies, TI is defined as follows: […]
The minimal effective dose (MED) was set according to NCl activity criteria as the dose resulting in an optimal % T/C of 40. This information was derived from Table 7.

[5] = mice; cited from earlier work

For `CCC1=C[C@@H]2CN(C1)Cc1c([nH]c3ccccc13)[C@@](C(=O)OC)(c1cc3c(cc1OC)N(C)[C@H]1[C@@](O)(C(=O)OC)[C@H](OC(C)=O)[C@]4(CC)C=CCN5CC[C@]31[C@@H]54)C2` [VRL, 5′-noranhydrovinblastine], the DRD ([1]; 5 mg/kg q7d x 3) was 0/15, the DRD ([1]; 10 mg/kg q7d x 3) was 0/15 and the DRD ([1]; 20 mg/kg q7d x 3) was 0/15. The DRD ([1]; 25 mg/kg q7d x 3) was 1/15, the Granulocytopenia ([1]; mouse, in vivo) was “significant” and the neutrophil population ([1]; mouse, in vivo) was “almost completely abolished”. The spleen weights ([1]; mouse, in vivo) was “Decreased spleen weights”, the “Max % Wt Loss” value ([1]; mouse, in vivo, 5 mg/kg) was “+” and the “Max % Wt Loss” value ([1]; mouse, in vivo, 10 mg/kg) was −3%. The “Max % Wt Loss” value ([1]; mouse, in vivo, 20 mg/kg) was −3%, the “Max % Wt Loss” value ([1]; mouse, in vivo, 25 mg/kg) was −5% and the MTD ([2]; NCr nu/nu and ICR, mouse, in vivo, intravenous, q7dx3 dose schedule, estimated, read-out: maximum tolerated dose (MTD)) was 25 to 30 mg/kg. For the same compound, the MTD ([2]; NCr nu/nu and ICR, mouse, in vivo, single dose, estimated, read-out: maximum tolerated dose (MTD)) was 30 mg/kg, the MTD ([2]; given intravenously on a q7dx3 schedule) was 27.5 mg/kg/dose and the “MTD used in the calculation of therapeutic index (TI)” value ([2]; q7dx3, derived from Table 5) was 27.5 mg/kg. The “% T/C (optimal % T/C following final treatment)” value (MX-1 breast xenografts; single i.v. dose 25.5 mg/kg) was 13%, the “DRD (drug related deaths)” value (MX-1 breast xenografts; single i.v. dose 25.5 mg/kg) was 1/10 and the “MWL (maximum mean weight loss per treatment group)” value (MX-1 breast xenografts; single i.v. dose 25.5 mg/kg) was −14.8. For the same compound, the “NCI Score” value (MX-1 breast xenografts; single i.v. dose 25.5 mg/kg) was 1, the “T-C (tumor growth delay to 1000 mm^3)” value (MX-1 breast xenografts; single i.v. dose 25.5 mg/kg) was 13 and the “TF (tumor free animals at the end of study)” value (MX-1 breast xenografts; single i.v. dose 25.5 mg/kg) was 1/9. For the same compound, the “% T/C (optimal % T/C following final treatment)” value (MX-1 breast xenografts; single i.v. dose 34 mg/kg) was 11%, the “DRD (drug related deaths)” value (MX-1 breast xenografts; single i.v. dose 34 mg/kg) was 0/10 and the “MWL (maximum mean weight loss per treatment group)” value (MX-1 breast xenografts; single i.v. dose 34 mg/kg) was −17.4. For the same compound, the “NCI Score” value (MX-1 breast xenografts; single i.v. dose 34 mg/kg) was 1, the “T-C (tumor growth delay to 1000 mm^3)” value (MX-1 breast xenografts; single i.v. dose 34 mg/kg) was 16 and the “TF (tumor free animals at the end of study)” value (MX-1 breast xenografts; single i.v. dose 34 mg/kg) was 3/10. The “% T/C (optimal % T/C following final treatment)” value ([3]; single i.v. dose 25.5 mg/kg) was 23%, the “DRD (drug related deaths)” value ([3]; single i.v. dose 25.5 mg/kg) was 0/6 and the “NCI Score” value ([3]; single i.v. dose 25.5 mg/kg) was 1. The “T-C (tumor growth delay to 1000 mm^3)” value ([3]; single i.v. dose 25.5 mg/kg) was 7, the “TF (tumor free animals at the end of study)” value ([3]; single i.v. dose 25.5 mg/kg) was 0/6 and the “% T/C (optimal % T/C following final treatment)” value ([3]; single i.v. dose 34 mg/kg) was “Toxic”. The “DRD (drug related deaths)” value ([3]; single i.v. dose 34 mg/kg) was 7/7, the “% T/C (optimal % T/C following final treatment)” value ([3]; single i.v. dose 45 mg/kg) was “Toxic” and the “DRD (drug related deaths)” value ([3]; single i.v. dose 45 mg/kg) was 7/7. The “% T/C (optimal % T/C following final treatment)” value (HT29 colon xenografts; single i.v. dose 25.5 mg/kg) was 35%, the “DRD (drug related deaths)” value (HT29 colon xenografts; single i.v. dose 25.5 mg/kg) was 0/7 and the “MWL (maximum mean weight loss per treatment group)” value (HT29 colon xenografts; single i.v. dose 25.5 mg/kg) was −9.8. For the same compound, the “NCI Score” value (HT29 colon xenografts; single i.v. dose 25.5 mg/kg) was 1, the “T-C (tumor growth delay to 1000 mm^3)” value (HT29 colon xenografts; single i.v. dose 25.5 mg/kg) was 12 and the “TF (tumor free animals at the end of study)” value (HT29 colon xenografts; single i.v. dose 25.5 mg/kg) was 1/7. The “% T/C (optimal % T/C following final treatment)” value (HT29 colon xenografts; single i.v. dose 30 mg/kg) was 31%, the “DRD (drug related deaths)” value (HT29 colon xenografts; single i.v. dose 30 mg/kg) was 0/7 and the “MWL (maximum mean weight loss per treatment group)” value (HT29 colon xenografts; single i.v. dose 30 mg/kg) was −9.3. For the same compound, the “NCI Score” value (HT29 colon xenografts; single i.v. dose 30 mg/kg) was 1, the “T-C (tumor growth delay to 1000 mm^3)” value (HT29 colon xenografts; single i.v. dose 30 mg/kg) was 9 and the “TF (tumor free animals at the end of study)” value (HT29 colon xenografts; single i.v. dose 30 mg/kg) was 1/7. The “% T/C (optimal % T/C following final treatment)” value ([4]; 5 mg/kg i.v. q7dx3) was −3%, the “DRD (drug related deaths, n = 6)” value ([4]; 5 mg/kg i.v. q7dx3) was 0 and the “NCI Score” value ([4]; 5 mg/kg i.v. q7dx3) was 2. The “T-C (tumor growth delay to 1000 mm^3)” value ([4]; 5 mg/kg i.v. q7dx3) was 37.5, the “TF (tumor free animals at the end of study)” value ([4]; 5 mg/kg i.v. q7dx3, n=6) was 0 and the “% T/C (optimal % T/C following final treatment)” value ([4]; 10 mg/kg i.v. q7dx3) was −100%. The “DRD (drug related deaths, n = 6)” value ([4]; 10 mg/kg i.v. q7dx3) was 0, the “NCI Score” value ([4]; 10 mg/kg i.v. q7dx3) was 3 and the “T-C (tumor growth delay to 1000 mm^3)” value ([4]; 10 mg/kg i.v. q7dx3) was over 62. For the same compound, the “TF (tumor free animals at the end of study)” value ([4]; 10 mg/kg i.v. q7dx3, n=6) was 1, the “% T/C (optimal % T/C following final treatment)” value ([4]; 20 mg/kg i.v. q7dx3) was −100% and the “DRD (drug related deaths, n = 6)” value ([4]; 20 mg/kg i.v. q7dx3) was 2. For the same compound, the “NCI Score” value ([4]; 20 mg/kg i.v. q7dx3) was 4, the “T-C (tumor growth delay to 1000 mm^3)” value ([4]; 20 mg/kg i.v. q7dx3) was over 62 and the “TF (tumor free animals at the end of study)” value ([4]; 20 mg/kg i.v. q7dx3, n=6) was 4. The “% T/C (optimal % T/C following final treatment)” value ([4]; 30 mg/kg i.v. q7dx3) was −100%, the “DRD (drug related deaths, n = 6)” value ([4]; 30 mg/kg i.v. q7dx3) was 1 and the “NCI Score” value ([4]; 30 mg/kg i.v. q7dx3) was 4. The “T-C (tumor growth delay to 1000 mm^3)” value ([4]; 30 mg/kg i.v. q7dx3) was over 62, the “TF (tumor free animals at the end of study)” value ([4]; 30 mg/kg i.v. q7dx3, n=6) was 3 and the “published LD50” value [5] was 34 mg/kg.
